Reference: US5516894A, “A2b -adenosine receptors” (priority 1994, dated 1996)
“Also recorded” adds a separate entry of the source.

How the values were obtained:
[1] = biological target: T1, RFL9 (rat A2b-adenosine receptor) (Rattus norvegicus, UniProt P29276); assay: cAMP response in COS-6M cells transfected with RFL9; type: cell-based
T1 sequence (P29276 1-332): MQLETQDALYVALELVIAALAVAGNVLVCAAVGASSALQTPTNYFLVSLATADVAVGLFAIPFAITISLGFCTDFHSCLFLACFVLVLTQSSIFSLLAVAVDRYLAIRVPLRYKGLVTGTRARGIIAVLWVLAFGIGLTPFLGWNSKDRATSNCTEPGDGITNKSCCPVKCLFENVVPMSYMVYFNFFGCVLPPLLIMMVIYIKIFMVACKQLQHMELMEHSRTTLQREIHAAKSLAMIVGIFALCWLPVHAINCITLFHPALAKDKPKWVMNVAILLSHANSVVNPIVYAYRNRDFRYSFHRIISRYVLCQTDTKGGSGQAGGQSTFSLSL

[2] = biological target: T2, rat A1-adenosine receptor (Rattus norvegicus, UniProt P25099); assay: [3H]ligand binding to COS-6M cells transiently transfected with rat A1-adenosine receptor cDNA; settings: [3H]NECA 20 nM, [3H]CCPA 2 nM
T2 sequence (P25099 1-326): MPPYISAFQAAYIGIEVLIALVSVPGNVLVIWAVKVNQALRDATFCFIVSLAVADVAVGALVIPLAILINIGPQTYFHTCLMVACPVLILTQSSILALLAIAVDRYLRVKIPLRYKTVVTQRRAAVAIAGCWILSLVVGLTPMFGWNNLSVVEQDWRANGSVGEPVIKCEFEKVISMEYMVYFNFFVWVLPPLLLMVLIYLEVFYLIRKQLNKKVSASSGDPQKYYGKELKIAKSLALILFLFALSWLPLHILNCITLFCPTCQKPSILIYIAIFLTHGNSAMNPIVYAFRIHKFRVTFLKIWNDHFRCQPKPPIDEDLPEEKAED

[3] = biological target: T1, RFL9 (rat A2b-adenosine receptor); assay: ligand binding to COS-6M cells transiently transfected with RFL9; settings: for specific binding: [3H]NECA 20 nM, [3H]CCPA 2 nM, [3H]CGS-21680 20 nM
[4] = biological target: rat A2a-adenosine receptor (Rattus norvegicus, UniProt P30543); settings: COS-6M cells; [3H]NECA 20 nM, [3H]CCPA 2 nM, [3H]CGS-21680 20 nM
A2a-adenosine receptors = settings: cited from earlier work
[5] = biological target: T1, RFL9 (rat A2b-adenosine receptor); assay: cAMP in CHO cells stably transfected with RFL9; type: cell-based; settings: NECA 1 μM; four clones
Text: Eight clones were identified which expressed RFL9 mRNA.
Generation of Stable Cell Lines
RNA was extracted from cells following NP-40 lysis.
Cyclic AMP Studies on Stable Transfectants

CHO cells = assay: cAMP accumulation in non-transformed CHO cells; type: cell-based, Chinese Hamster; settings: 1 mM; CHO cells not transformed; n=3
[6] = tested on: non-transformed CHO cells; settings: 100 nM
[7] = tested on: dog A2a-adenosine receptor; settings: cited from earlier work
[8] = biological target: T1, RFL9 (rat A2b-adenosine receptor); assay: [3H]NECA specific binding to RFL9-transformed CHO cells; settings: 100 nM; n=3
Text: All determinations were done in triplicate.

For `Cn1c(=O)c2[nH]cnc2n(C)c1=O` [aminophylline], the “inhibition of maximal NECA-stimulated increase in cAMP levels” value ([1]; antagonist 10^-2 M) was “completely blocked; also recorded: completely inhibited”.
With `OC[C@H]1O[C@@H](n2cnc3c(NC4CCCC4)nc(Cl)nc32)[C@H](O)[C@@H]1O` [[^3 H]CCPA, [^3 H]2-chloro-N-cyclopentyladenosine] the specific binding [2] was “specifically bound”, the specific binding [3] was “did not bind; also recorded: do not bind either the A1 - or A2a -receptor-specific agonists with high affinity” and the specific binding [4] was “Only cells transfected with the A1 -adenosine receptor cDNA specifically bound”.
In the case of `CCNC(=O)[C@H]1O[C@@H](n2cnc3c(N)ncnc32)[C@H](O)[C@@H]1O` [NECA, 5'-N-ethylcarboxamidoadenosine], the specific binding [3] is reported as “bind the nonselective adenosine agonist NECA”, the EC100 ([1]; 10 min, read-out: concentration of maximal stimulation of cAMP) is reported as 10 µM and the “NECA-stimulated increase in cAMP levels” value ([1]; dose-response) is reported as “dose-dependent increase in cAMP levels”. The “affinity for A2a-adenosine receptors” value (A2a-adenosine receptors) was “high affinity” and the stimulation of clones [5] was “all were found to be stimulated by NECA addition”.
For `Nc1ncnc2c1ncn2[C@@H]1O[C@H](CO)[C@@H](O)[C@H]1O` [adenosine], the cAMP accumulation (CHO cells) was “Neither NECA or adenosine (1 mM) induced cAMP accumulation”.
For `CCNC(=O)[C@H]1O[C@@H](n2cnc3c(N)ncnc32)[C@H](O)[C@@H]1O` [[^3 H]NECA] [[^3 H]5'-N-ethylcarboxamidoadenosine], the specific binding [2] was “specifically bound” and the “[3H]NECA specific binding” value [6] was 100 ± 23 fmol/mg.
In the case of `COc1ccc2[nH]c([125I])c(CCNC(C)=O)c2c1` [2[^125 1]melatonin], the “specific binding of 2[125I]melatonin” value [3] is reported as “do not exhibit specific binding”.
For `CCNC(=O)[C@H]1O[C@@H](n2cnc3c(N)nc(NCCc4ccc(CCC(=O)O)cc4)nc32)[C@H](O)[C@@H]1O` [CGS-21680, 2-[p-(2-carboxyethyl)phenethylamino]5'-N-ethylcarbox-amidoadenosine], the “affinity for dog A2a-adenosine receptor” value [7] is listed as “high affinity”.
For `CCNC(=O)[C@H]1O[C@@H](n2cnc3c(N)nc(NCCc4ccc(CCC(=O)O)cc4)nc32)[C@H](O)[C@@H]1O` [[^3 H]CGS-21680, [^3 H]2-[p-(2-carboxyethyl)phenethylamino]5'-N-ethylcarbox-amidoadenosine], the specific binding [2] was “Only cells transfected with the A2a -adenosine receptor cDNA specifically bound”.
For `CCNC(=O)[C@H]1O[C@@H](n2cnc3c(N)ncnc32)[C@H](O)[C@@H]1O` [[^3 H]NECA, [^3 H]5'-N-ethylcarboxamidoadenosine], the specific binding [3] was “specifically bound” and the “[3H]NECA specific binding” value [8] was 150 ± 20 fmol/mg.
